Tests used:
Type in all cases: functional
CCRF-CEM = assay: Growth inhibition of human CCRF-CEM cells incubated for 48 hrs by sulforhodamine B assay
HL-60(TB) = assay: Growth inhibition of human HL-60(TB) cells incubated for 48 hrs by sulforhodamine B assay; details: HL-60, 48 h
MOLT-4 = assay: Growth inhibition of human MOLT4 cells incubated for 48 hrs by sulforhodamine B assay; details: MOLT-4, 48 h
RPMI-8226 = assay: Growth inhibition of human RPMI8226 cells incubated for 48 hrs by sulforhodamine B assay; details: RPMI-8226, 48 h
SR = assay: Growth inhibition of human SR cells incubated for 48 hrs by sulforhodamine B assay
A549 = assay: Growth inhibition of human A549/ATCC cells incubated for 48 hrs by sulforhodamine B assay; details: A549, 48 h
EKVX = assay: Growth inhibition of human EKVX cells incubated for 48 hrs by sulforhodamine B assay
HOP-62 = assay: Growth inhibition of human HOP62 cells incubated for 48 hrs by sulforhodamine B assay; details: HOP-62, 48 h
NCI-H226 = assay: Growth inhibition of human NCI-H226 cells incubated for 48 hrs by sulforhodamine B assay; details: NCI-H226, 48 h
NCI-H23 = assay: Growth inhibition of human NCI-H23 cells incubated for 48 hrs by sulforhodamine B assay; details: NCI-H23, 48 h
NCI-H322M = assay: Growth inhibition of human NCI-H322M cells incubated for 48 hrs by sulforhodamine B assay
NCI-H460 = assay: Growth inhibition of human NCI-H460 cells incubated for 48 hrs by sulforhodamine B assay; details: NCI-H460, 48 h
NCI-H522 = assay: Growth inhibition of human NCI-H522 cells incubated for 48 hrs by sulforhodamine B assay; details: NCI-H522, 48 h
COLO 205 = assay: Growth inhibition of human COLO205 cells incubated for 48 hrs by sulforhodamine B assay; details: COLO 205, 48 h
HCT-116 = assay: Growth inhibition of human HCT116 cells incubated for 48 hrs by sulforhodamine B assay; details: HCT-116, 48 h
HCT-15 = assay: Growth inhibition of human HCT15 cells incubated for 48 hrs by sulforhodamine B assay; details: HCT-15, 48 h
HT-29 = assay: Growth inhibition of human HT-29 cells incubated for 48 hrs by sulforhodamine B assay; details: HT-29, 48 h
KM12 = assay: Growth inhibition of human KM12 cells incubated for 48 hrs by sulforhodamine B assay; details: KM12, 48 h
SW-620 = assay: Growth inhibition of human SW620 cells incubated for 48 hrs by sulforhodamine B assay; details: SW-620, 48 h
SF-268 = assay: Growth inhibition of human SF268 cells incubated for 48 hrs by sulforhodamine B assay; details: SF-268, 48 h
SF-295 = assay: Growth inhibition of human SF295 cells incubated for 48 hrs by sulforhodamine B assay; details: SF-295, 48 h
SF-539 = assay: Growth inhibition of human SF539 cells incubated for 48 hrs by sulforhodamine B assay; details: SF-539, 48 h
SNB-19 = assay: Growth inhibition of human SNB19 cells incubated for 48 hrs by sulforhodamine B assay; details: SNB-19, 48 h
SNB-75 = assay: Growth inhibition of human SNB75 cells incubated for 48 hrs by sulforhodamine B assay; details: SNB-75, 48 h
U-251 = assay: Growth inhibition of human U251 cells incubated for 48 hrs by sulforhodamine B assay; details: U-251, 48 h
LOX IMVI = assay: Growth inhibition of human LOXIMVI cells incubated for 48 hrs by sulforhodamine B assay
Malme-3M = assay: Growth inhibition of human MALME-3M cells incubated for 48 hrs by sulforhodamine B assay
M14 = assay: Growth inhibition of human M14 cells incubated for 48 hrs by sulforhodamine B assay; details: M14, 48 h
MDA-MB-435 = assay: Growth inhibition of human MDA-MB-435 cells incubated for 48 hrs by sulforhodamine B assay; details: MDA-MB-435, 48 h
SK-MEL-2 = assay: Growth inhibition of human SK-MEL-2 cells incubated for 48 hrs by sulforhodamine B assay; details: SK-MEL-2, 48 h
SK-MEL-28 = assay: Growth inhibition of human SK-MEL-28 cells incubated for 48 hrs by sulforhodamine B assay; details: SK-MEL-28, 48 h
SK-MEL-5 = assay: Growth inhibition of human SK-MEL-5 cells incubated for 48 hrs by sulforhodamine B assay; details: SK-MEL-5, 48 h
UACC-257 = assay: Growth inhibition of human UACC257 cells incubated for 48 hrs by sulforhodamine B assay; details: UACC-257, 48 h
UACC-62 = assay: Growth inhibition of human UACC62 cells incubated for 48 hrs by sulforhodamine B assay; details: UACC-62, 48 h
IGROV-1 = assay: Growth inhibition of human IGROV1 cells incubated for 48 hrs by sulforhodamine B assay; details: IGROV-1, 48 h
OVCAR-3 = assay: Growth inhibition of human OVCAR3 cells incubated for 48 hrs by sulforhodamine B assay; details: OVCAR-3, 48 h
OVCAR-4 = assay: Growth inhibition of human OVCAR4 cells incubated for 48 hrs by sulforhodamine B assay; details: OVCAR-4, 48 h
OVCAR-5 = assay: Growth inhibition of human OVCAR5 cells incubated for 48 hrs by sulforhodamine B assay; details: OVCAR-5, 48 h
OVCAR-8 = assay: Growth inhibition of human OVCAR8 cells incubated for 48 hrs by sulforhodamine B assay; details: OVCAR-8, 48 h
SK-OV-3 = assay: Growth inhibition of human SKOV3 cells incubated for 48 hrs by sulforhodamine B assay; details: SK-OV-3, 48 h
786-0 = assay: Growth inhibition of human 786-0 cells incubated for 48 hrs by sulforhodamine B assay; details: 786-0, 48 h
A498 = assay: Growth inhibition of human A498 cells incubated for 48 hrs by sulforhodamine B assay; details: A498, 48 h
ACHN = assay: Growth inhibition of human ACHN cells incubated for 48 hrs by sulforhodamine B assay
CAKI-1 = assay: Growth inhibition of human Caki1 cells incubated for 48 hrs by sulforhodamine B assay; details: CAKI-1, 48 h
RXF 393 = assay: Growth inhibition of human RXF393 cells incubated for 48 hrs by sulforhodamine B assay; details: RXF 393, 48 h
SN12C = assay: Growth inhibition of human SN12C cells incubated for 48 hrs by sulforhodamine B assay
TK-10 = assay: Growth inhibition of human TK10 cells incubated for 48 hrs by sulforhodamine B assay; details: TK-10, 48 h
UO-31 = assay: Growth inhibition of human UO31 cells incubated for 48 hrs by sulforhodamine B assay; details: UO-31, 48 h
PC-3 = assay: Growth inhibition of human PC3 cells incubated for 48 hrs by sulforhodamine B assay; details: PC-3, 48 h
DU-145 = assay: Growth inhibition of human DU145 cells incubated for 48 hrs by sulforhodamine B assay; details: DU-145, 48 h
MDA-MB-231 = assay: Growth inhibition of human MDA-MB-231 cells incubated for 48 hrs by sulforhodamine B assay; details: MDA-MB-231, 48 h
Hs-578T = assay: Growth inhibition of human Hs 578T cells incubated for 48 hrs by sulforhodamine B assay
BT-549 = assay: Growth inhibition of human BT549 cells incubated for 48 hrs by sulforhodamine B assay; details: BT-549, 48 h
T47D = assay: Growth inhibition of human T47D cells incubated for 48 hrs by sulforhodamine B assay
MDA-MB-468 = assay: Growth inhibition of human MDA-MB-468 cells incubated for 48 hrs by sulforhodamine B assay; details: MDA-MB-468, 48 h

SMILES: CNC(=O)c1cc(Oc2ccc(NC(=O)Nc3ccc(Cl)c(C(F)(F)F)c3)cc2)ccn1 [SORAFENIB]
- GI50 (CCRF-CEM): 2 µM
- TGI (CCRF-CEM): 5.01 µM
- TGI (HL-60(TB)): 100 µM
- TGI (MOLT-4): 100 µM
- TGI (RPMI-8226): 3.16 µM
- TGI (SR): 63.1 µM
- TGI (A549): 7.94 µM
- TGI (EKVX): 19.9 µM
- GI50 (HOP-62): 2 µM
- TGI (HOP-62): 3.16 µM
- GI50 (NCI-H226): 2 µM
- TGI (NCI-H226): 3.16 µM
- GI50 (NCI-H23): 2 µM
- TGI (NCI-H322M): 5.01 µM
- TGI (NCI-H460): 5.01 µM
- GI50 (NCI-H522): 2 µM
- TGI (NCI-H522): 5.01 µM
- GI50 (COLO 205): 2 µM
- TGI (COLO 205): 3.16 µM
- TGI (HCT-116): 2.51 µM
- TGI (HCT-15): 3.16 µM
- GI50 (HT-29): 2 µM
- TGI (HT-29): 5.01 µM
- TGI (KM12): 2.51 µM
- TGI (SW-620): 5.01 µM
- TGI (SF-268): 3.98 µM
- TGI (SF-295): 6.31 µM
- TGI (SF-539): 2.51 µM
- TGI (SNB-19): 3.98 µM
- TGI (SNB-75): 3.98 µM
- GI50 (U-251): 2 µM
- TGI (U-251): 3.16 µM
- TGI (LOX IMVI): 2.51 µM
- GI50 (Malme-3M): 2 µM
- TGI (Malme-3M): 39.8 µM
- GI50 (M14): 2 µM
- TGI (M14): 3.16 µM
- TGI (MDA-MB-435): 5.01 µM
- GI50 (SK-MEL-2): 2 µM
- TGI (SK-MEL-2): 6.31 µM
- TGI (SK-MEL-28): 2.51 µM
- TGI (SK-MEL-5): 2.51 µM
- GI50 (UACC-257): 2 µM
- TGI (UACC-62): 2.51 µM
- TGI (IGROV-1): 10 µM
- TGI (OVCAR-3): 3.98 µM
- TGI (OVCAR-4): 25.1 µM
- TGI (OVCAR-5): 6.31 µM
- GI50 (OVCAR-8): 3.16 µM
- TGI (OVCAR-8): 12.6 µM
- TGI (SK-OV-3): 5.01 µM
- TGI (786-0): 5.01 µM
- TGI (A498): 3.16 µM
- TGI (ACHN): 10 µM
- TGI (CAKI-1): 12.6 µM
- TGI (RXF 393): 5.01 µM
- TGI (SN12C): 3.16 µM
- TGI (TK-10): 10 µM
- TGI (UO-31): 6.31 µM
- GI50 (PC-3): 2 µM
- TGI (PC-3): 5.01 µM
- TGI (DU-145): 7.94 µM
- TGI (MDA-MB-231): 3.16 µM
- TGI (Hs-578T): 3.98 µM
- TGI (BT-549): 3.98 µM
- TGI (T47D): 5.01 µM
- GI50 (MDA-MB-468): 2 µM
- TGI (MDA-MB-468): 5.01 µM
